In data set [1] the target is T1, GAL4-PPAR γ chimeric nuclear receptor (human PPAR γ ligand binding domain) (Homo sapiens, UniProt P37231).
T1 construct: expressed in transfected cells; host or cells: HEK293EBNA cells, transient transfection with SuperFect
T1 sequence (P37231 174-475 isoform P37231-2): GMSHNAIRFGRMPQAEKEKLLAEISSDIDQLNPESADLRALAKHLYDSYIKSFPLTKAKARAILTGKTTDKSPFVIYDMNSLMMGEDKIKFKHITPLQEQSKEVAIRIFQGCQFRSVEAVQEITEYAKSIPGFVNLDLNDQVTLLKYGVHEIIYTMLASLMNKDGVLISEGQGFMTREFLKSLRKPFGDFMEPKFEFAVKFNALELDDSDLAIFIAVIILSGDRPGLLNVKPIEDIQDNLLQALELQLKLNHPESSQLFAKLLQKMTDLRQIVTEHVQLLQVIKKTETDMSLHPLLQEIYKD
Kind of data set: PPAR γ transactivation assay by transient gene transfer (GAL4-PPAR γ chimeric receptor, luciferase reporter, HEK293EBNA cells). Type of data set: cell-based. The following applies: concentration showing 50% of efficacy (maximum activity rate relative to pioglitazone = 100%), 24 hr. The protocol:
The agonist activity of the test compound to PPAR γ was determined by a transactivation assay method using a chimeric nuclear receptor of a DNA binding region of a yeast transcription factor GAL4 and a PPAR γ ligand binding region. Specifically, the PPAR γ agonist activity of the test compound was evaluated by the following method based on the method of Lehmann et al. (J Biol. Chem., 1995, vol. 270, page 12953).
HEK293EBNA cells cultured in Dulbecco's Modified Eagle medium (Invitrogen) containing 10 v/v % fetal bovine serum (Invitrogen) were used. 30 mL of the above-mentioned cells (density: 1×10^5 cells/mL) were inoculated in a […] (Iwaki Glass), and cultured overnight. Using SuperFect Transfection Reagent (QIAGEN), a plasmid expressing a GAL4-PPAR γ chimeric nuclear receptor fusing 174-475 amino acids, which are human PPAR γ ligand binding domain, and 1-147 amino acids, which are GAL4 DNA binding domain, and a reporter plasmid expressing a GAL4 responsive luciferase were transiently introduced into the cells at a proportion of 4:1. After 5 hr from transfection, the cells were detached from the culture dish, and the detached cells (density: 2×10^4 cells/mL) were inoculated by 100 μL in each well of a 96 well white plate (SUMITOMO BAKELITE), and cultured overnight. The medium was removed, the test compound diluted in various concentrations with serum-free Dulbecco's Modified Eagle medium was added by 100 μL, and the mixture was reacted under a 5% carbon dioxide gas stream (5% CO2) at 37° C. for 24 hr. On the other hand, as a positive control, 10 μmol/L of pioglitazone (100 μL) was added, and the mixture was reacted under a 5% carbon dioxide gas stream (5% CO2) at 37° C. for 24 hr. As a substrate of luciferase, 100 μL of Steady-Glo (Promega) was added to each well and the mixture was thoroughly stirred. Immediately thereafter, the chemical luminescence due to luciferase was measured using TopCount NTX (Packard).
The agonist activity (activity rate (%)) of the test compound to PPAR γ was calculated according to the following formula, as a relative activity when the agonist activity on addition of pioglitazone ([…]) was 100%.
In general terms: Reporter assays use an easily measured gene product as a stand-in for the process of interest.

Data set [2] in a line: Metabolic stability evaluation in human liver microsome. Type of data set: in vitro ADME. The following applies: liver microsomes, pH 7.4; human liver microsome 0.2 mg/mL protein, test compound 1 μmol/L, β-NADPH, 37° C., 30 min; average of two samples; read-out: hCLint (converted). As to the method: Human liver microsome (pool of 50 donors) was purchased from XenoTech. A reaction mixture containing phosphate buffer (100 mmol/L, pH 7.4), ethylenediamine tetraacetic acid (0.1 mmol/L), magnesium chloride (6 mmol/L), human liver microsome (0.2 mg/mL protein) and test compound (1 μmol/L) was prepared. The reaction mixture was preincubated at 37° C. for 5 min, β-NADPH (1 mmol/L) was added and the mixture was incubated at 37° C. for 30 min. The protein was removed with acetonitrile from the sample after the reaction and the sample was measured by LC-MS/MS. The ratio of the organic solvent in the reaction mixture was set to about 0.5%, and the reaction was performed in 2 samples.
The elimination rate constant (ke) was calculated from the linear regression of the logarithm plot of the residual ratio of the test compound and at 30 min after the reaction, and the liver inherent clearance (Cint) was calculated by the following formula.
[formula] ke: elimination rate constant (1/h) a: concentration (mg/mL) of liver microsome in the reaction mixture b: liver microsome amount per liver unit weight (32.3 mg/g liver) c: liver weight per unit body weight (25.7 g liver/kg body weight) Each test compound was tested in two samples, and the average thereof was calculated.
A general note: Microsomes from liver hold many membrane-bound enzymes, among them those of drug oxidation.

For orientation: EC50 means the concentration needed to bring the measured effect to its halfway point. Low readings indicate a more potent agent, high ones a less potent agent.

`C/C(=C1/c2ccc(Cn3c(C4CC4)nc4ccccc43)cc2COc2cc(F)ccc21)c1noc(=O)[nH]1` [Compound 1d, (E)-3-(1-{8-[(2-cyclopropyl-1H-benzo[d]imidazol-1-yl)methyl]-3-fluorodibenzo[b,e]oxepin-11(6H)-ylidene}ethyl)-1,2,4-oxadiazol-5(4H)-one]: the EC50 in data set [1] came out at 9 nM. The CLint scaled at 1 μmol/L in data set [2] was 23.3 mL/min/kg.
The molecule `C/C(=C1/c2ccc(Cn3c(C4CC(F)(F)C4)nc4ccccc43)cc2COc2cc(F)ccc21)c1noc(=O)[nH]1` [Compound 1j, (E)-3-[1-(8-{[2-(3,3-difluorocyclobutyl)-1H-benzo[d]imidazol-1-yl]methyl}-3-fluorodibenzo[b,e]oxepin-11(6H)-ylidene)ethyl]-1,2,4-oxadiazol-5(4H)-one] displayed an EC50 in data set [1] of 7.2 nM. Besides, the CLint scaled at 1 μmol/L in data set [2] is 28.3 mL/min/kg.
Take `CCCc1nc2ccccc2n1Cc1ccc2c(c1)COc1cc(F)ccc1/C2=C(/c1noc(=O)[nH]1)C1CC1` [Compound 4g, (E)-3-(cyclopropyl{3-fluoro-8-[(2-propyl-1H-benzo[d]imidazol-1-yl)methyl]dibenzo[b,e]oxepin-11(6H)-ylidene}methyl)-1,2,4-oxadiazol-5(4H)-one]: the EC50 in data set [1] worked out at 54.9 nM. The CLint scaled at 1 μmol/L in data set [2] is 78.3 mL/min/kg.
`C/C(=C1/c2ccc(Cc3c(C(C)C)nc4ccccn34)cc2COc2cc(F)ccc21)c1noc(=O)[nH]1` [Compound 8c, (E)-3-(1-{3-fluoro-8-[(2-isopropylimidazo[1,2-a]pyridin-3-yl)methyl]dibenzo[b,e]oxepin-11(6H)-ylidene}ethyl)-1,2,4-oxadiazol-5(4H)-one] had an EC50 in data set [1] of 33.3 nM. In addition, the CLint scaled at 1 μmol/L in data set [2] was 50 mL/min/kg.
Turning to `CCCc1nc2c(C(N)=O)cccc2n1Cc1ccc2c(c1)COc1cc(F)ccc1/C2=C(\C)c1noc(=O)[nH]1` [Compound 2b, (E)-1-({3-fluoro-11-[1-(5-oxo-4,5-dihydro-1,2,4-oxadiazol-3-yl)ethylidene]-6,11-dihydrodibenzo[b,e]oxepin-8-yl}methyl)-2-propyl-1H-benzo[d]imidazole-4-carboxamide], the EC50 in data set [1] came out at 59.5 nM. Moreover, the CLint scaled at 1 μmol/L in data set [2] was 26.7 mL/min/kg.
The molecule `CCCc1nc2ccccc2n1Cc1ccc2c(c1)COc1cc(F)ccc1/C2=C(\C)c1noc(=O)[nH]1` [Compound 1a, (E)-3-(1-{3-fluoro-8-[(2-propyl-1H-benzo[d]imidazol-1-yl)methyl]dibenzo[b,e]oxepin-11(6H)-ylidene}ethyl)-1,2,4-oxadiazol-5(4H)-one] showed an EC50 in data set [1] of 7.4 nM. Moreover, the CLint scaled at 1 μmol/L in data set [2] is 53.3 mL/min/kg.
In the case of `COCc1nc2ccccn2c1Cc1ccc2c(c1)COc1cc(F)ccc1/C2=C(\C)c1noc(=O)[nH]1` [Compound 8f, (E)-3-[1-(3-fluoro8-{[2-(methoxymethyl)imidazo[1,2-a]pyridin-3-yl]methyl}dibenzo[b,e]oxepin-11(6H)-ylidene)ethyl]-1,2,4-oxadiazol-5(4H)-one], the EC50 in data set [1] was found to be 31.7 nM. Besides, the CLint scaled at 1 μmol/L in data set [2] is 16.7 mL/min/kg.
For the molecule `CCCc1nc2c(C)nccn2c1Cc1ccc2c(c1)COc1cc(F)ccc1/C2=C(\C)c1noc(=O)[nH]1` [Compound 14d, (E)-3-(1-{3-fluoro-8-[(8-methyl-2-propylimidazo[1,2-a]pyrazin-3-yl)methyl]dibenzo[b,e]oxepin-11(6H)-ylidene}ethyl)-1,2,4-oxadiazol-5(4H)-one], the EC50 in data set [1] turned out to be 7.4 nM. Further, the CLint scaled at 1 μmol/L in data set [2] is 61.7 mL/min/kg.
Turning to `C/C(=C1/c2ccc(Cc3c(C4CC4)nc4ccccn34)cc2COc2cc(F)ccc21)c1noc(=O)[nH]1` [Compound 8b, (E)-3-(1-{8-[(2-cyclopropylimidazo[1,2-a]pyridin-3-yl)methyl]-3-fluorodibenzo[b,e]oxepin-11(6H)-ylidene}ethyl)-1,2,4-oxadiazol-5(4H)-one], in data set [1], a half-maximal effect (EC50) was put at 27.7 nM. For the same molecule, in data set [2], the CLint scaled at 1 μmol/L was 40 mL/min/kg.
